Data taken from patent US6987121B2, “Compositions and methods for hepatoprotection and treatment of cholestasis” (SmithKline Beecham Corporation, priority 2002, dated 2006).

How the values were obtained:
[1] = tested on: bile duct-ligated (BDL) rats; assay: Serum markers of liver function in bile duct-ligated (BDL) rats; type: in vivo, Sprague-Dawley rats; settings: GW4064 100 mg/kg daily i.p. for 7 days
Experimental: (§1) Male Sprague-Dawley rats (approximately 300 grams) were obtained from Charles River Laboratories Inc (Raleigh, N.C.) and were maintained on a 12 hour light/12 hour dark light cycle. Animals were anesthetized by the administration of 2-3% isoflurane. Laparotomy was performed under sterile technique and the liver and duodenum gently displaced to reveal the common bile duct. The bile duct was separated from the surrounding tissue and two ligatures of 4-0 Ethilon were placed around it. The bile duct was clamped between the two ligatures with an aneurysm clamp and the ligatures drawn tight. An additional ligature was placed proximal to the first (near the liver). The clamp was removed and the bile duct severed between the ligatures. The muscle wall was closed with 4-0 Vicryl and the skin closed with staples. Animals were allowed to recover for 24 hours prior to administration of drug (GW4064, 100 mg/kg daily in corn oil/10% DMSO) or vehicle alone (in corn oil/10% DMSO) by a daily intra-peritoneal injection for 7 days prior to sacrifice. Animals were allowed food and water ad libitum throughout the study period. Animals were anesthetized with 2-3% isoflurane and sacrificed by cardiac puncture.
Serum levels of alanine aminotransferase (ALT), asparate aminotransferase (AST), total bilirubin (TBILI), and γ-glutamyl transferase (GGT) were determined using an Instrumentation Laboratory Ilab600 clinical chemistry analyzer. Serum bile acids (BILEA) were determined using a commercially available assay (Sigma Chemical Co., St Louis, Mo.).

[2] = tested on: bile duct-ligated (BDL) rats; assay: Histological examination of liver samples from BDL rats; type: in vivo, Sprague-Dawley rats; settings: GW4064 100 mg/kg daily i.p. for 7 days
Experimental: as §1
A section of the liver was removed and placed into 10% neutral buffered formalin. […]

CC(C)c1onc(-c2c(Cl)cccc2Cl)c1COc1ccc(/C=C/c2cccc(C(=O)O)c2)c(Cl)c1 [GW4064]
Liver function as defined by the panel of enzymes examined [1]: pronounced improvement in liver function
Serum level of ALT, as % of that in BDL rats receiving vehicle alone ([1]; corn oil/10% DMSO): 23%
Serum level of AST, as % of that in BDL rats receiving vehicle alone ([1]; corn oil/10% DMSO): 27%
Serum level of GGT, as % of that in BDL rats receiving vehicle alone ([1]; corn oil/10% DMSO): 34%
Serum level of TBILI, as % of that in BDL rats receiving vehicle alone ([1]; corn oil/10% DMSO): 49%
Liver histology: bile duct proliferation [2]: only bile duct proliferation
Liver histology: necrosis ([2]; vehicle-treated showed large areas of necrosis): no necrosis
